Assay results: patent US20240238237A1, “CONJUGATED LINOLEIC ACID SUPPLEMENTATION FOR DISEASE TREATMENT” (VIRGINIA TECH INTELLECTUAL PROPERTIES, INC., priority 2021, published 2024)

Experiments:
Format in all cases: in vivo, mouse
[1] = tested on: C57Bl/6 WT, PWS, PWS-KO mice and 129v/J mice with a deletion of Nhlh2; test: Rotarod balance and forward locomotion, Example 2; settings: end of 12 week study, regardless of genotype
Procedure: At the end of the 12 week study, mice were acclimated to using a rotarod apparatus (FIG. 15A), for one day with grip tape on the rod, and two days without grip tape, at an acceleration of 2.65%, starting from 0) rpm to a maximum speed of 20 rpm. The average of four trials, spaced at least 5 minutes apart on day 4 of testing were the basis for the experimental result.

[2] = tested on: WT, PWS (Snord116m+/p−) and PWS-KO (Snord116m−/p−) mice; test: Weekly body weight, fat and lean mass (NMR), rectal temperature and food intake, Example 1
Procedure: All animal protocols were approved by the Institutional Animal Care and Use Commit-tee at Virginia Tech. Mice with the Snord116 paternal deletion (B6[Cg]-Snord116tm1.1Uta/J Stock No: 008149|1-loxp (KO), Snord116del) were obtained from Jackson Laboratories and maintained on a C57Bl/6 background. Genotyping and breeding were performed as reported. WT mice for the study were siblings of either the PWS (Snord116m+/p−) or PWS-KO (Snord116m−/p−) mice. PWS mice were generated by crossing WT females and male mice who were Snord116m−/p+. Breeder males (Snord116m−/p+) were generated in separate crosses to inherited their deleted allele from a maternal chromosome so that they were considered phenotypically normal in regards to Snord116 expression. PWS-KO (Snord116m−/p−) mice were generated by using non-sibling male and female mice of the genotype Snord116m−/p+ who had inherited their deleted allele maternally. In this type of mating, 50% of the offspring would be heterozygous (and never used for mating or the study, as the origin of their deleted allele could not be determined), and 25% each would have WT alleles or would be PWS-KO. Mice were housed at room temperature at about 22° C. with 12 h light/dark cycles at 7 a.m. and 7 p.m. and ad-libitum access to food (4.5% crude fat) and water. Mice were weaned at 3 weeks old, genotyped using an ear snip, […]. ear tagged, and housed with littermates of the same sex. For tissue dissection, mice were euthanized by CO2 asphyxiation between 12 p.m. and 2 p.m.
Body weight, fat, and lean mass, rectal temperature, and food intake were measured weekly. For body weight, fat, and lean mass measurements, mice were weighed on Mondays using a standard scale, and then placed in a Bruker (Billrica, MA, USA) LF90 NMR machine using the mouse holder. Measurements were recorded in grams for fat and lean mass.
All values were expressed as mean+SEM unless indicated otherwise. Comparison of means between groups and calculation of p-values were made using JMP Pro15 software (Cary, NC, USA), with Tukey's post hoc analysis for multiple comparisons when overall p-values in the comparison were significant. For the responses of weight, fat, lean mass, temperature, and food intake shown in figures, a fitted least squares regression with effects of genotype, treatment, and genotype×treatment was analyzed for Week 12 data only. Responses of these dependent variables were also analyzed across the 12-week time period, adding in effects of week, week×treatment, and week×genotype. […] The responses that had pre-post measures (wheel running, elevated plus, fasting glucose, glucose tolerance) were analyzed separately for the pre and post time periods (no effect of time). Animals were grouped together for the pre time period, regardless of their assigned data, as all animals were on standard mouse chow at that time. […] Rotarod data were collected only during the post-period and analyzed with a response of time and effects of genotype, treatment, and genotype×treatment. For area-under-the-curve calculations, the formula function in JMP was used to calculate the area for individual animals pre and post, and then fit least squares regression model used for effects of genotype, treatment, and genotype×treatment.

[3] = tested on: WT, PWS (Snord116m+/p−) and PWS-KO (Snord116m−/p−) mice; test: Elevated plus maze anxiety-like behavior, Example 1; settings: pre- and post-intervention; genotype, treatment or interaction
Procedure: A plus-shaped elevated plus apparatus with two open and two closed arms was constructed using measurements obtained from a commercial apparatus. This elevated plus maze was used for anxiety-like behavior analysis. The maze was cleaned with 70% ethanol before and after the procedure for each mouse and allowed to fully dry between mice. Mice were placed in the center/cross-arms and allowed to freely explore the maze for 5 min while the duration and frequency of entries into open and closed arms was recorded. Animals that enter the open arms more frequently are considered to display less overall anxiety-like behavior than those that stay in the closed arms.

[4] = tested on: WT, PWS (Snord116m+/p−) and PWS-KO (Snord116m−/p−) mice; test: Indirect calorimetry and home-cage activity (TSE system); settings: end of study, TSE metabolic chamber
Procedure: Indirect calorimetry and locomotor activity measurements were performed using a Labmaster Mouse calorimetry and Locomotor system (TSE Systems, Bad Homburg, Germany) in the Metabolism Core Virginia Tech. VO2 consumption and VCO2 production in individual mice were measured using metabolic chambers. Air going into the TSE system was at 20.9% oxygen, 0.05% CO2, and the airflow rate was 0.4 L/min (Airgas, Christiansburg, VA, USA). Data were collected every 15 min. Body composition was measured, as described above, prior to assessment of the animals using the TSE system. A photobeam-based ac-tivity monitoring system detected and recorded ambulatory movements. The results were used to calculate the respiratory exchange ratio (RER) and total energy expenditure/gram lean mass. Energy expenditure (KJ/h) was calculated using the formula VO2×(3.815+(1.232×RER))×4.1868 and normalized to the lean mass determined by NMR. All parameters were measured continuously and simultaneously for 48 h after approximately 20 h of adaptation for single-housed mice. The average values for the last 24-48 h were used for analysis. To calculate hourly activity, the average of two-hour bins of activity from the last 24 h period was plotted. […]

Substance: conjugated linoleic acid [CLA]
- Rotarod balance and forward locomotion [1]: balance and forward locomotion improvement
- Body fat, WT control diet more than WT CLA diet ([2]; WT mice, end of study): ~4 g
- Reduction in body fat levels with treatment ([2]; all genotypes, vs control HFD alone): 3.6 fold
- Body weight, overall effect of CLA diet ([2]; all three genotypes, 20% fat diet, vs control diet): significant reductions in body weight overall for the three genotypes
- Body weight, post hoc per genotype ([2]; each genotype on CLA diet vs control diet): significant body weight reductions
- Lean mass, treatment effect ([2]; whole model, 12 weeks): without a treatment effect
- Time in open arms, elevated plus [3]: no differences
- Home-cage activity [4]: not significant
